{"source": "patent US20130317056A1", "about": "“NEURONAL NICOTINIC AGONISTS AND METHODS OF CORRELATING COMT SNPS” (ABBVIE INC., priority 2012, published 2013)", "format_in_all_cases": "in vivo, human", "key": {"[1]": {"system": "clinically stable subjects with schizophrenia", "assay": "Disposition of subjects and tolerability, Clinical Study A", "text": "(§1) A Phase 2a proof-of-concept (POC) study in clinically stable subjects with schizophrenia who were clinically stable and received stable doses of atypical antipsychotic therapy. The study was a Phase 2, multi-center, randomized, double-blind, placebo-controlled, parallel group study designed to evaluate the safety and efficacy of doses of (4s)-4-(5-phenyl-1,3,4-thiadiazol-2-yloxy)-1-azatricyclo[3.3.1.1^3,7]decane (Compound A) in clinically stable male and female subjects (ages 20 to 55, inclusive) with a Diagnostic and Statistical Manual of Mental Disorders—Fourth Edition, Text Revision (DSM-IV-TR) diagnosis of schizophrenia. Psychiatric diagnoses were confirmed using the Mini-International Neuropsychiatric Interview (MINI) version 6.0.0. The criteria for clinical stability was determined by a combination of retrospective data (over the 4 months prior to the start of Screening, which will be supported by clinical records, patient, identified responsible contact person, and physician interviews), and prospective data assessed during the Prospective Stabilization Period of 28 to 42 days duration.\n(§2) The study consisted of a screening period of at least 28 and up to 42 days, a 84-day outpatient treatment period, a 14-day post-treatment period, and a post-treatment follow-up period. The screening period consisted of three visits: Screening Visit 1, Screening Visit 2, and Day −1. Upon completion of Day −1 procedures, eligible subjects were randomized through an Interactive Voice Response/Interactive Web-Based (IVR/IWB) system. Subjects were randomized in an equal ratio to one of three treatment groups (placebo, 10 mg Compound A, or 25 mg Compound A).\nSubjects completed 2 visits during the screening period. Study site personnel contacted each subject by telephone on Day 21, 35, and 70 of the 84-day treatment period to discuss study drug compliance, antipsychotic medication compliance, concomitant medication use, substance use, and any adverse events.\nA total of 207 subjects were randomized."}, "[2]": {"system": "subjects with schizophrenia who were not current smokers", "assay": "MCCB composite score in non-smokers by COMT SNP, Clinical Study A", "settings": "for MCCB composite score, change score: subjects who were not current smokers; for MCCB Change from Baseline to Final Mean(SD) / MCCB Between-group Difference (Pooled SD) / MCCB Effect Size (Raw mean): non-smokers; for treatment effect on MCCB: nonsmokers", "procedure": "Analysis of the data by cigarette smoking status (current smoker or current nonsmoker) indicated a significant […] interaction (p=0.015).\nA blood sample for genotyping was collected from each subject who consented. Genomic DNA was isolated from whole blood using the FlexiGene DNA AGF3000 kit (Qiagen, Valencia, Calif.), on an AutogenFlex 3000 (AutoGen, Holliston, Mass.). Genotypes were determined using the Pyrosequencing detection method (USA—Qiagen, Inc., Valencia, Calif.). Individuals performing the genotyping were blinded to clinical trial data. The significance of the minor allele against the major allele is shown in column marked “Treatment genotype p-value” (Tables 6 and 7).\nA similar dose-response trend was observed across the four COMT SNPs in the population of nonsmokers as well (data not shown)."}, "[3]": {"system": "clinically stable subjects with schizophrenia", "assay": "UCSD Performance-Based Skills Assessment-2 (UPSA-2), Clinical Study A", "text": "as §1\nThe study was a Phase 2, multi-center, randomized, double-blind, placebo-controlled, parallel group study designed to evaluate the safety and efficacy of doses of (4s)-4-(5-phenyl-1,3,4-thiadiazol-2-yloxy)-1-azatricyclo[3.3.1.1^3,7]decane, which is also recognized as Compound A, in treating cognitive deficits in subjects with schizophrenia who were clinically stable and receiving one or two atypical antipsychotic medications. Study drug was administered orally.\nas §2\nThe primary endpoint was the MCCB composite score, and the primary endpoint analysis was the change on the MCCB composite score from baseline to endpoint versus placebo. Other secondary measures included the MCCB domains, the NSA-16, the CANTAB cognition battery (measured at different time points from the MCCB), and the UPSA-2. The Positive and Negative Syndrome Scale (PANSS) was included to document stability in schizophrenia symptomatology.\nThe UCSD Performance-Based Skills Assessment-2 (UPSA-2) is a role-play test designed for subjects with schizophrenia to evaluate cognitive functional capacity in six selected domains of basic living skills. These areas include Organization/Planning, Financial Skills, Communication, Transportation, Household Management, and Medication Management. […] Scores were obtained for each subtest, and the total score was the sum of these subtests. […] The UPSA-2 required an average of 30 minutes to administer. The UPSA-2 was administered in on Days 14, 28, 56, 84 and 98."}, "[4]": {"system": "clinically stable subjects with schizophrenia", "assay": "MATRICS Consensus Cognitive Battery (MCCB), Phase 2a Clinical Study A, ITT", "settings": "25 mg QD, Change to Week 12", "text": "as §1, with “Psychiatric diagnoses were confirmed using the Mini-International Neuropsychiatric Interview (MINI) version 6.0.0.” left out, “duration. […]” for “duration.”\nThe primary endpoint was the MCCB composite score, and the primary endpoint analysis was the change on the MCCB composite score from baseline to endpoint versus placebo. Other secondary measures included the MCCB domains, the NSA-16, the CANTAB cognition battery (measured at different time points from the MCCB), and the UPSA-2. […]"}, "[5]": {"settings": "RS4633 C/C (major allele), 25 mg vs placebo"}, "[6]": {"settings": "RS4633 T/T or C/T (minor allele), 10 mg vs placebo"}, "[7]": {"settings": "RS4633 T/T or C/T (minor allele), 25 mg vs placebo"}, "[8]": {"settings": "RS4680 A/A or G/A (minor allele), 10 mg vs placebo"}, "[9]": {"settings": "RS4680 A/A or G/A (minor allele), 25 mg vs placebo"}, "[10]": {"settings": "RS4680 G/G (major allele), 25 mg vs placebo"}, "[11]": {"settings": "RS4818 C/C (major allele), 25 mg vs placebo"}, "[12]": {"settings": "RS4818 G/C or G/G (minor allele), 10 mg vs placebo"}, "[13]": {"settings": "RS4818 G/C or G/G (minor allele), 25 mg vs placebo"}, "[14]": {"settings": "RS6269 A/A (major allele), 25 mg vs placebo"}, "[15]": {"settings": "RS6269 G/G or A/G (minor allele), 10 mg vs placebo"}, "[16]": {"settings": "RS6269 G/G or A/G (minor allele), 25 mg vs placebo"}}, "data": [{"smiles": "c1ccc(-c2nnc(O[C@@H]3C4CC5C[C@H]3C[N@](C5)C4)s2)cc1", "note": "[Compound A, (4s)-4-(5-phenyl-1,3,4-thiadiazol-2-yloxy)-1-azatricyclo[3.3.1.1^3,7]decane]", "values": [{"measurement": "Discontinuation: Adverse event", "setting": "[1]; 10 mg QD", "value": "4 (5.8) n (%)"}, {"measurement": "Discontinuation: Adverse event", "setting": "[1]; 25 mg QD", "value": "3 (4.5) n (%)"}, {"measurement": "Discontinuation: Adverse event", "setting": "[1]; Compound A overall", "value": "7 (5.1) n (%)"}, {"measurement": "tolerability", "setting": "[1]; subjects with schizophrenia, doses up to 25 mg QD, including 10 mg QD and 25 mg QD", "value": "well tolerated"}, {"measurement": "MCCB composite score, change score", "setting": "[2]; 10 mg, p=0.021", "value": "+2.1"}, {"measurement": "MCCB composite score, change score", "setting": "[2]; 25 mg, p=0.001", "value": "+4.5"}, {"measurement": "MCCB Change from Baseline to Final Mean(SD)", "setting": "[2]; RS4633 C/C (major allele), 25 mg", "value": "7.4(6.1)"}, {"measurement": "MCCB Between-group Difference (Pooled SD)", "setting": "[2]; [5]", "value": "8.4(5.1)"}, {"measurement": "MCCB Effect Size (Raw mean)", "setting": "[2]; [5]", "value": 1.65}, {"measurement": "MCCB Change from Baseline to Final Mean(SD)", "setting": "[2]; RS4633 T/T or C/T (minor allele), 10 mg", "value": "2.4(7.3)"}, {"measurement": "MCCB Between-group Difference (Pooled SD)", "setting": "[2]; [6]", "value": "2.7(6.1)"}, {"measurement": "MCCB Effect Size (Raw mean)", "setting": "[2]; [6]", "value": 0.44}, {"measurement": "MCCB Change from Baseline to Final Mean(SD)", "setting": "[2]; RS4633 T/T or C/T (minor allele), 25 mg", "value": "2.4(5.4)"}, {"measurement": "MCCB Between-group Difference (Pooled SD)", "setting": "[2]; [7]", "value": "2.7(4.9)"}, {"measurement": "MCCB Effect Size (Raw mean)", "setting": "[2]; [7]", "value": 0.55}, {"measurement": "MCCB Change from Baseline to Final Mean(SD)", "setting": "[2]; RS4680 A/A or G/A (minor allele), 10 mg", "value": "2.2(7.5)"}, {"measurement": "MCCB Between-group Difference (Pooled SD)", "setting": "[2]; [8]", "value": "2.4(6.4)"}, {"measurement": "MCCB Effect Size (Raw mean)", "setting": "[2]; [8]", "value": 0.38}, {"measurement": "MCCB Change from Baseline to Final Mean(SD)", "setting": "[2]; RS4680 A/A or G/A (minor allele), 25 mg", "value": "2.4(5.4)"}, {"measurement": "MCCB Between-group Difference (Pooled SD)", "setting": "[2]; [9]", "value": "2.6(4.7)"}, {"measurement": "MCCB Effect Size (Raw mean)", "setting": "[2]; [9]", "value": 0.55}, {"measurement": "MCCB Change from Baseline to Final Mean(SD)", "setting": "[2]; RS4680 G/G (major allele), 25 mg", "value": "7.4(6.1)"}, {"measurement": "MCCB Between-group Difference (Pooled SD)", "setting": "[2]; [10]", "value": "8.4(5.1)"}, {"measurement": "MCCB Effect Size (Raw mean)", "setting": "[2]; [10]", "value": 1.65}, {"measurement": "MCCB Change from Baseline to Final Mean(SD)", "setting": "[2]; RS4818 C/C (major allele), 25 mg", "value": "1.3(6.7)"}, {"measurement": "MCCB Between-group Difference (Pooled SD)", "setting": "[2]; [11]", "value": "1.8(5.3)"}, {"measurement": "MCCB Effect Size (Raw mean)", "setting": "[2]; [11]", "value": 0.34}, {"measurement": "MCCB Change from Baseline to Final Mean(SD)", "setting": "[2]; RS4818 G/C or G/G (minor allele), 10 mg", "value": "1.2(3.8)"}, {"measurement": "MCCB Between-group Difference (Pooled SD)", "setting": "[2]; [12]", "value": "1.8(3.9)"}, {"measurement": "MCCB Effect Size (Raw mean)", "setting": "[2]; [12]", "value": 0.46}, {"measurement": "MCCB Change from Baseline to Final Mean(SD)", "setting": "[2]; RS4818 G/C or G/G (minor allele), 25 mg", "value": "5.8(5.3)"}, {"measurement": "MCCB Between-group Difference (Pooled SD)", "setting": "[2]; [13]", "value": "6.4(4.8)"}, {"measurement": "MCCB Effect Size (Raw mean)", "setting": "[2]; [13]", "value": 1.33}, {"measurement": "MCCB Change from Baseline to Final Mean(SD)", "setting": "[2]; RS6269 A/A (major allele), 25 mg", "value": "1.9(6.3)"}, {"measurement": "MCCB Between-group Difference (Pooled SD)", "setting": "[2]; [14]", "value": "2.2(4.9)"}, {"measurement": "MCCB Effect Size (Raw mean)", "setting": "[2]; [14]", "value": 0.45}, {"measurement": "MCCB Change from Baseline to Final Mean(SD)", "setting": "[2]; RS6269 G/G or A/G (minor allele), 10 mg", "value": "1.0(3.5)"}, {"measurement": "MCCB Between-group Difference (Pooled SD)", "setting": "[2]; [15]", "value": "1.9(3.9)"}, {"measurement": "MCCB Effect Size (Raw mean)", "setting": "[2]; [15]", "value": 0.49}, {"measurement": "MCCB Change from Baseline to Final Mean(SD)", "setting": "[2]; RS6269 G/G or A/G (minor allele), 25 mg", "value": "5.9(5.6)"}, {"measurement": "MCCB Between-group Difference (Pooled SD)", "setting": "[2]; [16]", "value": "6.8(5.2)"}, {"measurement": "MCCB Effect Size (Raw mean)", "setting": "[2]; [16]", "value": 1.31}, {"measurement": "treatment effect on MCCB", "setting": "[2]; minor allele of the four COMT SNPs", "value": "highly robust"}, {"measurement": "treatment effect on MCCB", "setting": "[2]; subjects containing the major allele", "value": "meaningful effect"}, {"measurement": "UPSA-2 medication management subscale score", "setting": "[3]; 10 mg, P=0.094", "value": "statistically significant improvement or statistical trend for improvement"}, {"measurement": "UPSA-2 household skills subscale score", "setting": "[3]; 10 mg, P=0.096", "value": "statistically significant improvement or statistical trend for improvement"}, {"measurement": "UPSA-2 comprehension/planning subscale score", "setting": "[3]; 10 mg, P=0.102", "value": "statistically significant improvement or statistical trend for improvement"}, {"measurement": "UPSA-2 comprehension/planning subscale score", "setting": "[3]; 25 mg, P=0.005", "value": "statistically significant improvement or statistical trend for improvement"}, {"measurement": "UPSA-2 composite score, significance versus placebo", "setting": "[3]; either dose group (10 mg, 25 mg)", "value": "No significance"}, {"measurement": "MCCB Verbal Learning, Observed Mean (SD) change from baseline", "setting": "[4]", "value": "2.24 (8.03) T-score"}]}]}
